# Measured values: US20200385789A1, “METHODS OF ASSESSING TELOMERES” (Children's Medical Research Institute, priority 2017, published 2020)
# Test system: IMR90 primary human foetal lung fibroblasts
# Test: Telomere length by telomere fibre-FISH (TFF) after exposure of cells to inhibitors
# Format: cell-based
# Settings: 0.1 μM aphidicolin and/or 0.2 μM INK128, harvested 7 days after exposure, versus DMSO alone (untreated)
# Description: IMR90 primary human foetal lung fibroblasts were plated and 1 day later were exposed to aphidicolin, mTORi, aphidicolin+mTORi, or DMSO alone (untreated). Cells were harvested a further 7 days later and telomere length was assessed by TFF. (A) Representative imaging data of DNA fibres: Left panel—expanded view of telomere fibre fish imaging data. Center and right panels—close up of the boxes 1-5 shown on the left panel. Boxes are drawn around the telomere signals and the length in μm and kb is indicated. (B). Telomere length presented in a Tukey box plot. “+” is the mean, **=P<0.01. TFF was used to measure telomere length in cells exposed to one or both of two inhibitors: aphidicolin and an mTOR inhibitor. Cells (IMR90 primary human foetal lung fibroblasts) were plated and one day later were exposed to 0.1 μM aphidicolin, 0.2 μM of INK128 (an mTOR inhibitor), aphidicolin+INK128, or DMSO alone (untreated). Cells were harvested a further 7 days later and telomere length was assessed by TFF, essentially as described above.
smiles,measurement,value
CC(C)n1nc(-c2ccc3oc(N)nc3c2)c2c(N)ncnc21 [INK128],Telomere length compared with untreated cells,telomere length in untreated cells was significantly greater
C[C@@]1(CO)[C@H](O)CC[C@@]2(C)[C@H]1CC[C@H]1C[C@@H]3C[C@@]12CC[C@]3(O)CO [aphidicolin],Telomere length compared with untreated cells,telomere length in untreated cells was significantly greater
